# From patent US20220315578A1, “BRD9 BIFUNCTIONAL DEGRADERS AND THEIR METHODS OF USE” (NOVARTIS AG, priority 2019, published 2022)
# Biological target: T1, BRD9-GFP (Homo sapiens, UniProt Q9H8M2)
# T1 construct: CHYSEL (2A cis-acting hydrolase element) remnant after GFP; mCherry is split off as a separate protein (C); expressed in transfected cells; host or cells: HEK293A cells (Invitrogen R70507), lentiviral transduction with pLenti6-BRD9-GFP-CHYSEL-mCherry, blasticidin selection
# T1 sequence (Q9H8M2 1-597): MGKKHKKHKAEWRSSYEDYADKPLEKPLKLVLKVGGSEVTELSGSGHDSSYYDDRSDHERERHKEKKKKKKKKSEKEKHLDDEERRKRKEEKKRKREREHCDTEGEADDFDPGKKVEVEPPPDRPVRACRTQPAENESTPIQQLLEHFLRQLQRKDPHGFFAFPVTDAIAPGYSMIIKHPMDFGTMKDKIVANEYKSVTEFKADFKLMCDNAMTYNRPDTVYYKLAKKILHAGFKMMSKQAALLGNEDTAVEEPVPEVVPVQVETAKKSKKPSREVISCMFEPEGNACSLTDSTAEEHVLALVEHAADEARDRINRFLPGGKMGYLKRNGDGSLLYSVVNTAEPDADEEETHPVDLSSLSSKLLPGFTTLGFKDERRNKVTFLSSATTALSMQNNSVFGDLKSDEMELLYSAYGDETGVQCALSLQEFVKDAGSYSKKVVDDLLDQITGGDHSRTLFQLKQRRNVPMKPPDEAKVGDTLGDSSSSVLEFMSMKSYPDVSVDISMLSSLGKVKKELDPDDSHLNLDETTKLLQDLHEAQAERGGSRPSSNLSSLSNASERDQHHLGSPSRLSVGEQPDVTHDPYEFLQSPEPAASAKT
# Experiment: BRD9-GFP protein abundance flow cytometry assay in HEK293A cells
# Assay type: cell-based
# Conditions: HEK293A-BRD9-GFP-CHYSEL-mCherry cells; for BRD9 Deg Amax %: 24 h, % protein remaining at the concentration at which maximum degradation is seen; for DC50: 24 h at 37° C., 10-point 1:3 dilution, concentration at which 50% maximal degradation was observed
# Summary of the method: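 HEK293A cells stably express bicistronic BRD9-GFP-CHYSEL-mCherry and received 24 h treatment at 37° C with a 10-point, 3-fold dilution series from […], in 0.1% DMSO and duplicate. Median GFP/mCherry ratio of 5,000 single cells by flow cytometry, normalized to mCherry-only cells (0%) and DMSO (100%), gave DC50 and Amax (% protein remaining).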
Structure (SMILES),BRD9 Deg Amax % [%],DC50 [nM]
"CCCCn1cc(-c2ccc(OC3CCN(CC4CCN(C(=O)c5ccc(Cl)c(N6CCC(=O)NC6=O)c5)CC4)CC3)c(OC)c2)c2ccncc2c1=O [Compound B6, 1-(5-(4-((4-(4-(2-butyl-1-oxo-1,2-dihydro-2,7-naphthyridin-4-yl)-2-methoxyphenoxy)piperidin-1-yl)methyl)piperidine-1-carbonyl)-2-chlorophenyl)dihydropyrimidine-2,4(1H,3H)-dione]",16.75,1
"CCCCn1cc(-c2cc(OC)c(CCN3CCC(OC4CCN(CCn5cccc(CN6CCC(=O)NC6=O)c5=O)CC4)CC3)cc2OC)c2ccncc2c1=O [Compound D3, 1-((1-(2-(4-((1-(4-(2-butyl-1-oxo-1,2-dihydro-2,7-naphthyridin-4-yl)-2,5-dimethoxyphenethyl)piperidin-4-yl)oxy)piperidin-1-yl)ethyl)-2-oxo-1,2-dihydropyridin-3-yl)methyl)dihydropyrimidine-2,4(1H,3H)-dione]",17.62,47
"COc1cc(-c2cn(C)c(=O)c3cnccc23)cc(OC)c1CN1CCC(OC2CCN(C(=O)COc3ccc(N4CCC(=O)NC4=O)cc3)CC2)CC1 [Compound A35, 1-(4-(2-(4-((1-(2,6-Dimethoxy-4-(2-methyl-1-oxo-1,2-dihydro-2,7-naphthyridin-4-yl)benzyl)piperidin-4-yl)oxy)piperidin-1-yl)-2-oxoethoxy)phenyl)dihydropyrimidine-2,4(1H,3H)-dione]",13.19,31
"Cn1cc(-c2cc(F)c(CN3CCC(OC4CCN(CCn5cccc(CN6CCC(=O)NC6=O)c5=O)CC4)CC3)cc2F)c2ccncc2c1=O [Compound E1, 1-((1-(2-(4-((1-(2,5-difluoro-4-(2-methyl-1-oxo-1,2-dihydro-2,7-naphthyridin-4-yl)benzyl)piperidin-4-yl)oxy)piperidin-1-yl)ethyl)-2-oxo-1,2-dihydropyridin-3-yl)methyl)dihydropyrimidine-2,4(1H,3H)-dione]",19.40,6
"COc1cc(-c2cn(C)c(=O)c(C)c2C)ccc1CN1CCN(CC2CCN(C(=O)c3ccc(OC)c(N4CCC(=O)NC4=O)c3)CC2)CC1 [Compound A13, 1-(2-Methoxy-5-(4-((4-(2-methoxy-4-(1,4,5-trimethyl-6-oxo-1,6-dihydropyridin-3-yl)benzyl)piperazin-1-yl)methyl)piperidine-1-carbonyl)phenyl)dihydropyrimidine-2,4(1H,3H)-dione]",18.05,15
"COc1cc(-c2cn(C)c(=O)c3cnccc23)cc(OC)c1CCCN1CCC(OC2CCN(C(=O)c3ccc(Cl)c(N4CCC(=O)NC4=O)c3)CC2)CC1 [Compound A28, 1-(2-Chloro-5-(4-((1-(3-(2,6-dimethoxy-4-(2-methyl-1-oxo-1,2-dihydro-2,7-naphthyridin-4-yl)phenyl)propyl)piperidin-4-yl)oxy)piperidine-1-carbonyl)phenyl)dihydropyrimidine-2,4(1H,3H)-dione]",22.70,2
"CCCCn1cc(-c2cc(F)c(CN3CCC(OC4CCN(C(=O)COc5ccc(C)c(N6CCC(=O)NC6=O)c5)CC4)CC3)c(F)c2)c2ccncc2c1=O [Compound E45, 1-(5-(2-(4-((1-(4-(2-butyl-1-oxo-1,2-dihydro-2,7-naphthyridin-4-yl)-2,6-difluorobenzyl)piperidin-4-yl)oxy)piperidin-1-yl)-2-oxoethoxy)-2-methylphenyl)dihydropyrimidine-2,4(1H,3H)-dione]",15.28,7
"COc1cc(-c2cn(C)c(=O)c3cnccc23)c(OC)cc1CN1CCN(CC2CCN(C(=O)c3ccc(OC)c(N4CCC(=O)NC4=O)c3)CC2)CC1 [Compound A23, 1-(5-(4-((4-(2,5-Dimethoxy-4-(2-methyl-1-oxo-1,2-dihydro-2,7-naphthyridin-4-yl)benzyl)piperazin-1-yl)methyl)piperidine-1-carbonyl)-2-methoxyphenyl)dihydropyrimidine-2,4(1H,3H)-dione]",10.64,16
"COc1cc(-c2cc(C)c(=O)n(C)c2)c(OC)cc1CN1CCC(OC2CCN(C(=O)c3cccc(N4CCC(=O)NC4=O)c3)CC2)CC1 [Compound A16, 1-(3-(4-((1-(4-(1,5-Dimethyl-6-oxo-1,6-dihydropyridin-3-yl)-2,5-dimethoxybenzyl)piperidin-4-yl)oxy)piperidine-1-carbonyl)phenyl)dihydropyrimidine-2,4(1H,3H)-dione]",6.37,32
"CCCCCCn1cc(-c2cc(OC)c(CCN3CCC(OC4CCN(C(=O)c5ccc(OC)c(N6CCC(=O)NC6=O)c5)CC4)CC3)c(OC)c2)c2ccncc2c1=O [Compound E4, 1-(5-(4-((1-(4-(2-hexyl-1-oxo-1,2-dihydro-2,7-naphthyridin-4-yl)-2,6-dimethoxy-phenethyl)piperidin-4-yl)oxy)piperidine-1-carbonyl)-2-meth-oxyphenyl)dihydro-pyrimidine-2,4(1H,3H)-dione]",19.61,34
"CCCCn1cc(-c2ccc(O[C@H]3CCN(CC4CCN(CCn5cccc(CN6CCC(=O)NC6=O)c5=O)CC4)C[C@@H]3F)cc2)c2ccncc2c1=O [Compound E28, 1-((1-(2-(4-(((3S,4S)-4-(4-(2-butyl-1-oxo-1,2-dihydro-2,7-naphthyridin-4-yl)phenoxy)-3-fluoropiperidin-1-yl)methyl)piperidin-1-yl)ethyl)-2-oxo-1,2-dihydropyridin-3-yl)methyl)dihydropyrimidine-2,4(1H,3H)-dione]",23.20,21
"COc1ccc(C(=O)N2CCC(CN3CCC(Oc4ccc(-c5cn(C)c(=O)c6cnccc56)cc4)CC3)CC2)cc1N1CCC(=O)NC1=O [Compound A12, 1-(2-Methoxy-5-(4-((4-(4-(2-methyl-1-oxo-1,2-dihydro-2,7-naphthyridin-4-yl)phenoxy)piperidin-1-yl)methyl)piperidine-1-carbonyl)phenyl)dihydropyrimidine-2,4(1H,3H)-dione]",13.46,2
"COc1cc(-c2cc(C)c(=O)n(C)c2)ccc1C(=O)N1CCC(OC2CCN(C(=O)c3ccc(OC)c(N4CCC(=O)NC4=O)c3)CC2)CC1 [Compound A2, 1-(5-(4-((1-(4-(1,5-Dimethyl-6-oxo-1,6-dihydropyridin-3-yl)-2-methoxybenzoyl)piperidin-4-yl)oxy)piperidine-1-carbonyl)-2-methoxyphenyl)dihydropyrimidine-2,4(1H,3H)-dione]",13.39,63
"COc1ccc(C(=O)N2CCC(OCCN3CCN(Cc4c(OC)cc(-c5cn(C)c(=O)c6cnccc56)cc4OC)CC3)CC2)cc1N1CCC(=O)NC1=O [Compound A34, 1-(5-(4-(2-(4-(2,6-Dimethoxy-4-(2-methyl-1-oxo-1,2-dihydro-2,7-naphthyridin-4-yl)benzyl)piperazin-1-yl)ethoxy)piperidine-1-carbonyl)-2-methoxyphenyl)dihydropyrimidine-2,4(1H,3H)-dione]",13.80,37
"CCCCn1cc(-c2cc(OC)c(CN3CCC(OC4CCN(CCn5cccc(CN6CCC(=O)NC6=O)c5=O)CC4)CC3)c(OC)c2)c2ccncc2c1=O [Compound D2, 1-((1-(2-(4-((1-(4-(2-butyl-1-oxo-1,2-dihydro-2,7-naphthyridin-4-yl)-2,6-dimethoxybenzyl)piperidin-4-yl)oxy)piperidin-1-yl)ethyl)-2-oxo-1,2-dihydropyridin-3-yl)methyl)dihydropyrimidine-2,4(1H,3H)-dione]",13.05,15
"COc1cc(-c2cc(C)c(=O)n(C)c2)ccc1C(=O)N1CCN(CC2CCN(C(=O)c3ccc(OC)c(N4CCC(=O)NC4=O)c3)CC2)CC1 [Compound A3, 1-(5-(4-((4-(4-(1,5-Dimethyl-6-oxo-1,6-dihydropyridin-3-yl)-2-methoxybenzoyl)piperazin-1-yl)methyl)piperidine-1-carbonyl)-2-methoxyphenyl)dihydropyrimidine-24(1H,3H)-dione]",12.29,68
"COc1ccc(C(=O)N2CCC(OC3CCN(Cc4c(OC)cc(-c5cn(C)c(=O)c6cnccc56)cc4OC)CC3)CC2)cc1N1CCC(=O)NC1=O [Compound A42, 1-(5-(4-((1-(2,6-Dimethoxy-4-(2-methyl-1-oxo-1,2-dihydro-2,7-naphthyridin-4-yl)benzyl)piperidin-4-yl)oxy)piperidine-1-carbonyl)-2-methoxyphenyl)dihydropyrimidine-2,4(1H,3H)-dione]",13.53,98
